From ChEMBL document CHEMBL1201862, “PubChem BioAssay data set” (2004) come the findings set out here.

Active and inactive are the calls of the source. No stated cut-off is given here; in the data, actives have a measured IC50 and inactives only a lower limit.

Test [1] has as its target T1, Apoptotic protease-activating factor 1 (Homo sapiens, UniProt O14727).
T1 sequence (O14727 whole entry): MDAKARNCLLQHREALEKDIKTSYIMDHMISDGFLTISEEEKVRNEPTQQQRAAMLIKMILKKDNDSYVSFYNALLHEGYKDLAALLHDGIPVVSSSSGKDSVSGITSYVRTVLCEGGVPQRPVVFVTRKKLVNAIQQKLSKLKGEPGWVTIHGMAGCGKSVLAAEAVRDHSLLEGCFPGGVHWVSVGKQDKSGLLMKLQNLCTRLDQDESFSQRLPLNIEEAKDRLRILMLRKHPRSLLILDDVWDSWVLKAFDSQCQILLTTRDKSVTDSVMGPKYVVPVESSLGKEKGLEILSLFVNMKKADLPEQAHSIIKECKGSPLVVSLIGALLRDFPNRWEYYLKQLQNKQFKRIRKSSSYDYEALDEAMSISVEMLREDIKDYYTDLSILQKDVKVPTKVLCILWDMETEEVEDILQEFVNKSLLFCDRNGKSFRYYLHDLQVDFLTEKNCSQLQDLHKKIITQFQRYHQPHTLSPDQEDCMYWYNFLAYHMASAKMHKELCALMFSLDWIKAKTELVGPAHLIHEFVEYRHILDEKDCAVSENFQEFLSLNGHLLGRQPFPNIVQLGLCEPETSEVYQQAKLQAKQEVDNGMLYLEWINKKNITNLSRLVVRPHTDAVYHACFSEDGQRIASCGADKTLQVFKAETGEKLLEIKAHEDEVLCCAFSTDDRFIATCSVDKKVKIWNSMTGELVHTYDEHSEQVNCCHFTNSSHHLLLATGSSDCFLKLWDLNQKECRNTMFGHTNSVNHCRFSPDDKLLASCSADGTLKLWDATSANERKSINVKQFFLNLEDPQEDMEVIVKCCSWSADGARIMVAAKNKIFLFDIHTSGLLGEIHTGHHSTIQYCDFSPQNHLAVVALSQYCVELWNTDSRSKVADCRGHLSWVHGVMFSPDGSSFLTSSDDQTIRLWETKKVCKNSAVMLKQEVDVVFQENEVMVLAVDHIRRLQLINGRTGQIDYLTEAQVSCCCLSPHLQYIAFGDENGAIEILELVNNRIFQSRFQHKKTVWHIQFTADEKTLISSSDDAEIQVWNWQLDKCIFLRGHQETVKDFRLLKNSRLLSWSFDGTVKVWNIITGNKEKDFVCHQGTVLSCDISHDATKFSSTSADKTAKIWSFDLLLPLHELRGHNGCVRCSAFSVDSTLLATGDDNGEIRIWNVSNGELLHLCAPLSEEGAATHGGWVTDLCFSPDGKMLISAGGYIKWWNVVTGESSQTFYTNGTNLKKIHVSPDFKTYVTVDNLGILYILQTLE
The class given is functional.

Test [2] concerns the target T2, Sentrin-specific protease 6 (Homo sapiens, UniProt Q9GZR1).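 Further: Luminescence-based dose-response confirmatory assay of SENP6 inhibition, following up an ultra-high-throughput screen.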
T2 sequence (Q9GZR1 whole entry): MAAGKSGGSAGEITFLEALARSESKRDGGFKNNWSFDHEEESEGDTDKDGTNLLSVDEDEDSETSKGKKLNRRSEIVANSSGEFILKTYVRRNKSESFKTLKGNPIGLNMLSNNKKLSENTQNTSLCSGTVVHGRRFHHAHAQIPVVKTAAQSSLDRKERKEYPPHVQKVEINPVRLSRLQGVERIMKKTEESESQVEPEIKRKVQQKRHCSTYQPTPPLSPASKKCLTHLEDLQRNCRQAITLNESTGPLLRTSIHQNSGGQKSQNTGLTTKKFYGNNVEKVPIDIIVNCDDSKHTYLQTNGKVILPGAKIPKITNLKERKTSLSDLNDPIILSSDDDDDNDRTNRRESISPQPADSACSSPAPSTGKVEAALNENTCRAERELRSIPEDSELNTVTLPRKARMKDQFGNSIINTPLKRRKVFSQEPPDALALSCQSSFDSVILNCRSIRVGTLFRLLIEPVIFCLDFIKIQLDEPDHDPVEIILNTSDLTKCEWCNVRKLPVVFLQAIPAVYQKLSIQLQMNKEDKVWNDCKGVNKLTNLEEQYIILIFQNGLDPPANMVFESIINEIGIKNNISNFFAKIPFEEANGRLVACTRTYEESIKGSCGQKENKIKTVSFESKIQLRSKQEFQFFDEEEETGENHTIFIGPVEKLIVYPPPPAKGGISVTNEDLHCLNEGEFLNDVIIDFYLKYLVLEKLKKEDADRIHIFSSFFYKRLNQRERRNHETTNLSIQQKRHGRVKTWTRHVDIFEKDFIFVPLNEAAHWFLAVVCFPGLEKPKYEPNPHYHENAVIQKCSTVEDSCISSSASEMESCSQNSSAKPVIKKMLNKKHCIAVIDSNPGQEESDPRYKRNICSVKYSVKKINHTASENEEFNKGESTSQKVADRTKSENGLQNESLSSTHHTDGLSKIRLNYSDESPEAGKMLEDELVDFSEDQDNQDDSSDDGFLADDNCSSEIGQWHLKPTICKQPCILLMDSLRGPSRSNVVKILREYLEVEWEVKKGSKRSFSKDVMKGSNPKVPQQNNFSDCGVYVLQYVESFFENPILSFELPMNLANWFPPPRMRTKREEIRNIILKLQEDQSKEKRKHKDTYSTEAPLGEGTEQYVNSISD
The class given is functional.

As for `CCC(=O)N(C1=C(NC)C(=O)c2ccccc2C1=O)C(C)C`, the values for the IC50 in test [1] and in test [2] were 20.8 µM (active) and 16.7 µM (active), respectively.
